Experimental findings from patent US20240108002A1, “1-AMINO-1-CYCLOPROPANECARBOXYLIC ACID AND PROHYDROJASMON MIXTURES AND USES THEREOF” (Valent BioSciences LLC, priority 2022, published 2024) are described below.

In the experiment the test system is Imperial Gala apples. As to the kind of experiment: Apple coloration in Imperial Gala variety, percent red pixel area after foliar spray. Type of experiment: in vivo. Conditions: for Average % Red Pixel Area: foliar spray, 34 hours post spray; for Fold Change From control: vs 0.05% Regulaid control. On the procedure:
10 sets of unripened apples, Imperial Gala variety, harvested three weeks before the normal harvest date, were each foliar sprayed with either 1) 0.05% Regulaid® as a control, 2) 50 ppm prohydrojasmon, 3) 300 ppm prohydrojasmon, 4) 50 ppm ACC, 5) 300 ppm ACC or 6) a mixture of 50 ppm prohydrojasmon and 50 ppm ACC or 7) a mixture of 300 ppm prohydrojasmon and 300 ppm ACC. 34 hours post spray application percent red pixel area (shaded) was measured. Percent red pixel area is an indication of the coloration of the apple fruit.
To determine if the mixture provided unexpected results, the observed combined efficacy (“OCE”) was divided by the expected combined efficacy (“ECE”) wherein the ECE is calculated by the Abbott method: […]
wherein ECE is the expected combined efficacy and in which A and B are the fold change from control given by the single active ingredients. If the ratio between the OCE of the mixture and the ECE of the mixture is greater than 1, then greater than expected interactions are present in the mixture. (Gisi, Synergistic Interaction of Fungicides in Mixtures, The American Phytopathological Society, 86:11, 1273-1279,1996).

Take `CCCCCC1C(=O)CCC1CC(=O)OCCC` (centres unmarked) [prohydrojasmon]: where the note is “single active at 50 ppm”, the “Average % Red Pixel Area” value is on record as 15.84% and the “Fold Change From control” value amounted to 1.33. In addition, for the setting “single active at 300 ppm”, the “Average % Red Pixel Area” value is listed as 21.03% and the “Fold Change From control” value stood at 2.09.

As to `NC1(C(=O)O)CC1` [ACC, 1-amino-1-cyclopropanecarboxylic acid], for the setting “single active at 50 ppm”, the “Average % Red Pixel Area” value is recorded as 7.02% and the “Fold Change From control” value is given as 0.03. Under “single active at 300 ppm”, the “Average % Red Pixel Area” value is 4.66% and the “Fold Change From control” value is reported as −0.31.
